Data reported in patent US12077503B2, “Substituted cyclic amides and their use as herbicides” (FMC CORPORATION, priority 2015, dated 2024).

Tests used:
Type in all cases: in vivo
[1] = test system: pigweed (Amaranthus retroflexus); assay: Test A preemergence; settings: preemergence, 0 to 100 scale where 0 is no effect and 100 is complete control
[2] = test system: ryegrass, Italian (Italian ryegrass, Lolium multiflorum); assay: Test A preemergence; settings: preemergence, 0 to 100 scale where 0 is no effect and 100 is complete control
Summary of the method: (§1)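 Seeded soil received test chemicals as a preemergence directed spray, and seedlings at one to two leaves, 2–10 cm tall, received them postemergence, in a non-phytotoxic, surfactant-containing solvent mixture. Pots were held in a greenhouse for approximately 10 d, then rated for injury from 0, no effect, to 100, complete control.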

[3] = test system: Kochia (Kochia scoparia); assay: Test A preemergence; settings: preemergence, 0 to 100 scale where 0 is no effect and 100 is complete control
Summary of the method: as §1

[4] = test system: barnyardgrass (Echinochloa crus-galli); assay: Test A preemergence; settings: preemergence, 0 to 100 scale where 0 is no effect and 100 is complete control
Summary of the method: as §1

[5] = test system: ragweed (common ragweed, Ambrosia elatior); assay: Test A preemergence; settings: preemergence, 0 to 100 scale where 0 is no effect and 100 is complete control
Summary of the method: as §1

[6] = test system: giant foxtail (Setaria faberii); assay: Test A preemergence; settings: preemergence, 0 to 100 scale where 0 is no effect and 100 is complete control
Summary of the method: as §1

[7] = test system: sedge, umbrella (small-flower umbrella sedge, Cyperus difformis); assay: Test B flooded paddy test; settings: 250 g ai/ha, Flood; 0 to 100 scale where 0 is no effect and 100 is complete control
Summary of the method: (§2)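 Evaluation by eye, against controls, occurred 13–15 d post-treatment in a greenhouse, using a 0 (no effect) to 100 (complete control) scale. Application was into the paddy water, 3 cm deep over the soil, on 2-leaf plants.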

[8] = test system: rice (Oryra sativa); assay: Test B flooded paddy test; settings: 250 g ai/ha, Flood; 0 to 100 scale where 0 is no effect and 100 is complete control
Summary of the method: as §2

[9] = test system: barnyardgrass (Echinochloa crus-galli); assay: Test B flooded paddy test; settings: 250 g ai/ha, Flood; 0 to 100 scale where 0 is no effect and 100 is complete control
Summary of the method: as §2

[10] = test system: ducksalad (Heteranthera limosa); assay: Test B flooded paddy test; settings: 250 g ai/ha, Flood; 0 to 100 scale where 0 is no effect and 100 is complete control
Summary of the method: as §2

[11] = test system: corn (Zea mays); assay: Test A postemergence; settings: postemergence
Summary of the method: as §1

[12] = test system: pigweed (Amaranthus retroflexus); assay: Test A postemergence; settings: postemergence
Summary of the method: as §1

[13] = test system: ryegrass, Italian (Italian ryegrass, Lolium multiflorum); assay: Test A postemergence; settings: postemergence
Summary of the method: as §1

[14] = test system: wheat (Triticum aestivum); assay: Test A postemergence; settings: 125 g ai/ha, postemergence, visual injury vs untreated controls after approx. 10 d; 0 = no effect, 100 = complete control
Summary of the method: as §1

[15] = test system: Kochia (Kochia scoparia); assay: Test A postemergence; settings: postemergence
Summary of the method: as §1

[16] = test system: barnyardgrass (Echinochloa crus-galli); assay: Test A postemergence; settings: postemergence
Summary of the method: as §1

[17] = test system: Galium (catchweed bedstraw, Galium aparine); assay: Test A postemergence; settings: postemergence
Summary of the method: as §1

[18] = test system: ragweed (common ragweed, Ambrosia elatior); assay: Test A postemergence; settings: postemergence
Summary of the method: as §1

[19] = test system: blackgrass (Alopecurus myosuroides); assay: Test A postemergence; settings: postemergence
Summary of the method: as §1

[20] = test system: giant foxtail (Setaria faberii); assay: Test A postemergence; settings: postemergence
Summary of the method: as §1

[21] = 125 g ai/ha, visual injury rating, approximately 10 d
[22] = 125 g ai/ha, visual injury vs untreated controls after approx. 10 d, 0 = no effect, 100 = complete control
[23] = 500 g ai/ha, 0 to 100 scale, 0 is no effect, 100 is complete control

O=C1NCC(c2cccc(C(F)(F)F)c2)C1C(=O)Nc1ccccc1O (centres unmarked) [Compound 1241]
0: Pigweed plant response rating [1, 21] | Pigweed plant response rating ([1]; 500 g ai/ha) | Ryegrass, Italian plant response rating [2, 21] | Ryegrass, Italian plant response rating ([2]; 500 g ai/ha) | Kochia plant response rating [3, 21] | Kochia plant response rating ([3]; 500 g ai/ha) | Barnyardgrass plant response rating [4, 21] | Barnyardgrass plant response rating ([4]; 500 g ai/ha) | Ragweed plant response rating [5, 21] | Ragweed plant response rating ([5]; 500 g ai/ha) | Foxtail, Giant plant response rating [6, 21] | Foxtail, Giant plant response rating ([6]; 500 g ai/ha) | Sedge, Umbrella plant response rating [7] | Rice plant response rating [8] | Barnyardgrass plant response rating [9] | Ducksalad plant response rating [10] | Corn plant response rating (0 to 100 scale) [11, 22] | Pigweed plant response rating (0 to 100 scale) [12, 22] | Pigweed plant response rating [12, 23] | Ryegrass, Italian plant response rating (0 to 100 scale) [13, 22] | Ryegrass, Italian plant response rating [13, 23] | Wheat plant response rating (0 to 100 scale) [14] | Kochia plant response rating (0 to 100 scale) [15, 22] | Kochia plant response rating [15, 23] | Barnyardgrass plant response rating (0 to 100 scale) [16, 22] | Galium plant response rating (0 to 100 scale) [17, 22] | Galium plant response rating [17, 23] | Ragweed plant response rating (0 to 100 scale) [18, 22] | Ragweed plant response rating [18, 23] | Blackgrass plant response rating (0 to 100 scale) [19, 22] | Blackgrass plant response rating [19, 23] | Foxtail, Giant plant response rating (0 to 100 scale) [20, 22]
30: Barnyardgrass plant response rating [16, 23]
20: Corn plant response rating [11, 23] | Foxtail, Giant plant response rating [20, 23]
